Test results taken from patent US20070048252A1, “Conjugates of the hydrophilic polymer and the molecules from boxwood extraction, and pharmaceutical compositions of the conjugates” (Beijingn Jenkem Technology CO., Ltd., priority 2003, published 2007).
“Also recorded” adds a separate entry of the source.

Legend:
[1] = tested on: pituitrin-induced myocardial ischemic injury; experiment: Effect on pituitrin-induced myocardial ischemic injury (routine leads ECG: T wave, cardioverter); format: in vivo, SD rats; settings: for effect on the cardioverter, in words: comparison with the controls groups, P>0.05; for inhibition of the rising of T wave by pituitrin-induced, in words: in 15 sec
Method: (§1) The conjugate obtained from example 8 was used as the testing reagent in the following study, while native Cyclovirobuxine D was used as positive control. Both samples were dissolved in sodium acetate (pH 5.7) before injection.
Methods: 50 normal SD rats of each sex, weighting 180-220 g, were randomly divided into five groups: controls, low dose of native Cyclovirobuxine D (0.25 mg/kg); middle dose of native Cyclovirobuxine D (0.5 mg/kg); low dose of the conjugate of Cyclovirobuxine D (0.25 mg/kg); middle dose of the conjugate of Cyclovirobuxine D (0.5 mg/kg). All rats were fasted before experiment for 12 hours, 1 g/kg urethane was administered by abdominal injection for anesthesia of the rats, and were placed in dorsal recumbency. A needle electrode was inserted into extremity subsurface carefully, examination leads ECG, holding 30 min, records the routine leads ECG The drug was given via vein of […] tail for each groups, after 10 min, 1.5 u/kg pituitrin was injected into dorsal veins of tongue, limited in 10 sec, records the routine leads ECG in 15 s, 30 s, 1, 2, 3, 5, 7, 10, 15 min after injected.

[2] = tested on: Kunming strain mice; experiment: Acute toxicity study, single IV or IP injection, 14 days observation; format: in vivo
Method: as §1
Kunming strain mice, 50% male and 50% formale, weighing 19-21 g, were randomly divided into 5 groups in the study. (1) native Cyclovirobuxine D, (2) the conjugate of PEG and Cyclovirobuxine D. The mice were fasted 12 hours before the injections. Each mice was given a single injection, and the volume for both IV and IP injection was based on 0.3 ml/10 g formulation. […] After 14 days, the mice still alive were executed and then analyzed.

[3] = low dose 0.25 mg/kg iv, 1′ after pituitrin
[4] = low dose 0.25 mg/kg iv, 2′ after pituitrin
[5] = low dose 0.25 mg/kg iv, 3′ after pituitrin
[6] = low dose 0.25 mg/kg iv, 5′ after pituitrin
[7] = low dose 0.25 mg/kg iv, 7′ after pituitrin
[8] = low dose 0.25 mg/kg iv, 10′ after pituitrin
[9] = low dose 0.25 mg/kg iv, 15′ after pituitrin
[10] = low dose 0.25 mg/kg iv, 15″ after pituitrin 1.5 u/kg
[11] = low dose 0.25 mg/kg iv, 30″ after pituitrin
[12] = middle dose 0.5 mg/kg iv, 1′ after pituitrin
[13] = middle dose 0.5 mg/kg iv, 2′ after pituitrin
[14] = middle dose 0.5 mg/kg iv, 3′ after pituitrin
[15] = middle dose 0.5 mg/kg iv, 5′ after pituitrin
[16] = middle dose 0.5 mg/kg iv, 7′ after pituitrin
[17] = middle dose 0.5 mg/kg iv, 10′ after pituitrin
[18] = middle dose 0.5 mg/kg iv, 15′ after pituitrin
[19] = middle dose 0.5 mg/kg iv, 15″ after pituitrin 1.5 u/kg
[20] = middle dose 0.5 mg/kg iv, 30″ after pituitrin
[21] = middle dose 0.5 mg/kg iv, time 0

CN[C@@H](C)[C@H]1[C@H](O)C[C@@]2(C)[C@@H]3CC[C@H]4C(C)(C)[C@@H](NC)CC[C@@]45C[C@@]35CC[C@]12C [native Cyclovirobuxine D, Cyclovirobuxine D]
effect on the cardioverter, in words [1]: no significantly effect
effect on the cardioverter, in words ([1]; listed as Native Cyclovirobuxine D): no significant effect
cardioverter (X ± S) [1, 3]: 228.3 ± 44.41
rising of T wave (X ± S) [1, 3]: 0.22 ± 0.08
cardioverter (X ± S) [1, 4]: 250.3 ± 29.14
rising of T wave (X ± S) [1, 4]: 0.18 ± 0.065
cardioverter (X ± S) [1, 5]: 267.6 ± 44.71
rising of T wave (X ± S) [1, 5]: 0.21 ± 0.072
cardioverter (X ± S) [1, 6]: 266.4 ± 30.09
rising of T wave (X ± S) [1, 6]: 0.22 ± 0.081
cardioverter (X ± S) [1, 7]: 270.6 ± 30.52
rising of T wave (X ± S) [1, 7]: 0.21 ± 0.076
cardioverter (X ± S) [1, 8]: 289.8 ± 43.91
rising of T wave (X ± S) [1, 8]: 0.23 ± 0.075
cardioverter (X ± S) [1, 9]: 315.0 ± 63.39
rising of T wave (X ± S) [1, 9]: 0.24 ± 0.081
cardioverter (X ± S) [1, 10]: 351.6 ± 90.78
rising of T wave (X ± S) [1, 10]: 0.50 ± 0.092
cardioverter (X ± S) [1, 11]: 202.9 ± 42.85
rising of T wave (X ± S) [1, 11]: 0.23 ± 0.061
cardioverter (X ± S) ([1]; low dose 0.25 mg/kg iv, time 0): 392.4 ± 48.11
rising of T wave (X ± S) ([1]; low dose 0.25 mg/kg iv, time 0): 0.20 ± 0.040
cardioverter (X ± S) [1, 12]: 196.2 ± 52.90
rising of T wave (X ± S) [1, 12]: 0.23 ± 0.068
cardioverter (X ± S) [1, 13]: 215.4 ± 45.47
rising of T wave (X ± S) [1, 13]: 0.23 ± 0.051
cardioverter (X ± S) [1, 14]: 236.7 ± 47.92
rising of T wave (X ± S) [1, 14]: 0.23 ± 0.047
cardioverter (X ± S) [1, 15]: 256.6 ± 51.26
rising of T wave (X ± S) [1, 15]: 0.24 ± 0.040
cardioverter (X ± S) [1, 16]: 268.6 ± 53.15
rising of T wave (X ± S) [1, 16]: 0.25 ± 0.048
cardioverter (X ± S) [1, 17]: 260.8 ± 93.87
rising of T wave (X ± S) [1, 17]: 0.27 ± 0.044
cardioverter (X ± S) [1, 18]: 297.6 ± 41.30
rising of T wave (X ± S) [1, 18]: 0.26 ± 0.040
cardioverter (X ± S) [1, 19]: 331.1 ± 41.18
rising of T wave (X ± S) [1, 19]: 0.34 ± 0.119
cardioverter (X ± S) [1, 20]: 234.5 ± 85.06
rising of T wave (X ± S) [1, 20]: 0.19 ± 0.116
cardioverter (X ± S) [1, 21]: 389.6 ± 46.56
rising of T wave (X ± S) [1, 21]: 0.21 ± 0.052
inhibition of the rising of T wave by pituitrin-induced, in words ([1]; middle dose groups, 0.5 mg/kg, vs control group P<0.01): could inhibit
LD50 in IP injection ([2]; Kunming mice, single IP injection, 14 days observation): 97.52 mg/kg
LD50 in IV injection ([2]; Kunming mice, single IV injection, 14 days observation): 11.77 mg/kg

α-methoxy-polyethylene-glycol-ω-glu-glu-gly-Cyclovirobuxine D ester [Example 8]
effect on the cardioverter, in words ([1]; listed as the conjugate of Cyclovirobuxine D): no significantly effect; also recorded: no significant effect
cardioverter (X ± S) [1, 3]: 150 ± 96.44
rising of T wave (X ± S) [1, 3]: 0.25 ± 0.062
cardioverter (X ± S) [1, 4]: 180 ± 60.00
rising of T wave (X ± S) [1, 4]: 0.22 ± 0.102
cardioverter (X ± S) [1, 5]: 200 ± 56.57
rising of T wave (X ± S) [1, 5]: 0.28 ± 0.071
cardioverter (X ± S) [1, 6]: 240 ± 69.28
rising of T wave (X ± S) [1, 6]: 0.33 ± 0.056
cardioverter (X ± S) [1, 7]: 260 ± 44.72
rising of T wave (X ± S) [1, 7]: 0.35 ± 0.067
cardioverter (X ± S) [1, 8]: 260 ± 44.72
rising of T wave (X ± S) [1, 8]: 0.32 ± 0.052
cardioverter (X ± S) [1, 9]: 300 ± 91.65
rising of T wave (X ± S) [1, 9]: 0.33 ± 0.069
cardioverter (X ± S) [1, 10]: 270 ± 145.94
rising of T wave (X ± S) [1, 10]: 0.24 ± 0.059
cardioverter (X ± S) [1, 11]: 200 ± 128.06
rising of T wave (X ± S) [1, 11]: 0.17 ± 0.123
cardioverter (X ± S) ([1]; low dose 0.25 mg/kg iv, time 0): 420 ± 60.00
rising of T wave (X ± S) ([1]; low dose 0.25 mg/kg iv, time 0): 0.25 ± 0.064
inhibition of the rising of T wave by pituitrin-induced, in words ([1]; low dose groups, 0.25 mg/kg, vs control groups P<0.01): could inhibit
cardioverter (X ± S) [1, 12]: 180 ± 60.00
rising of T wave (X ± S) [1, 12]: 0.28 ± 0.049
cardioverter (X ± S) [1, 13]: 200 ± 56.57
rising of T wave (X ± S) [1, 13]: 0.27 ± 0.029
cardioverter (X ± S) [1, 14]: 240 ± 0.00
rising of T wave (X ± S) [1, 14]: 0.28 ± 0.029
cardioverter (X ± S) [1, 15]: 260 ± 44.72
rising of T wave (X ± S) [1, 15]: 0.31 ± 0.059
cardioverter (X ± S) [1, 16]: 280 ± 56.57
rising of T wave (X ± S) [1, 16]: 0.31 ± 0.059
cardioverter (X ± S) [1, 17]: 280 ± 56.57
rising of T wave (X ± S) [1, 17]: 0.30 ± 0.065
cardioverter (X ± S) [1, 18]: 280 ± 56.57
rising of T wave (X ± S) [1, 18]: 0.33 ± 0.072
cardioverter (X ± S) [1, 19]: 340 ± 44.72
rising of T wave (X ± S) [1, 19]: 0.33 ± 0.123
cardioverter (X ± S) [1, 20]: 260 ± 107.70
rising of T wave (X ± S) [1, 20]: 0.22 ± 0.107
cardioverter (X ± S) [1, 21]: 420 ± 60.00
rising of T wave (X ± S) [1, 21]: 0.23 ± 0.046
toxicity compared with native Cyclovirobuxine D, in words ([2]; iv and ip administration, from LD50): lower toxicity
